Source: US20070161644A1, “Erastin analogs and uses thereof” (priority 2005, published 2007)

Assays:
[1] = test system: BJ-TERT/LT/ST/RAS^V12 cells; test: Cell death in the presence of a pan-caspase inhibitor; assay type: cell-based, human; conditions: 50 μM inhibitor
[2] = test system: BJ-TERT/LT/ST/RAS^V12 cells relative to BJ-TERT cells; test: Alamar Blue viability assay, tumorigenic versus wild type cells; assay type: cell-based, human
Method: Alamar Blue is reduced by mitochondrial enzyme activity in viable cells, causing both colorimetric and fluorescent changes (Nociari et al., 1998, J. Immunol. Methods 13, 157-167). Cells were seeded at a density of 6000 cells (50 μl) per well in a 384-well black, clear bottom plate using a syringe bulk dispenser (Zymark). 10 μl was removed from a two-fold serially diluted erastin plate (6× final concentration) using a 384 fixed cannula head, making the final concentration 20 μg/ml in the well with highest concentration. The plates were incubated for 24 hours. Alamar Blue (Biosource International) was added to each well by diluting 1:10 and incubated for 16 hours at 37° C. Fluorescence intensity was determined using a Packard Fusion platereader with an excitation filter centered on 535 nm and an emission filter centered on 590 nm. Average percentage inhibition at each concentration was calculated. Error bars indicate one standard deviation.
The effect of erastin or erastin B on cell viability was measured using Alamar Blue as described in Example 3 in both tumorigenic BJ-TERT/LT/ST/RAS^V12 (BJELR) cells and wild type BJ-TERT (BJEH) cells. In this example, cell viability was measured at 1, 2, and 3 days after treatment with erastin or erastin B (data for days 1 and 3 not shown). Average percentage inhibition at each concentration was measured.
The effect on cell viability of each of the two isomers of Compound 20 was measured using the Alamar Blue assay described in Example 3 in both tumorigenic BJ-TERT/LT/ST/RAS^V12 cells and wild type BJ-TERT cells. Average percentage inhibition at each concentration was measured.
The effect on cell viability of erastin or Compound 21 was measured using the Alamar Blue assay as described in Example 3 in both tumorigenic BJ-TERT/LT/ST/RAS^V12 cells and in wild type BJ-TERT cells. Average percentage inhibition at each concentration was measured. […]

[3] = test system: VDAC isoforms, Prohibitin and Ribophorin; test: Pull-down with immobilized erastin derivatives; assay type: binding, human; conditions: pull-down from lysates, mitochondrial extract or MonoQ fractions
Method: Pull-down assays using immobilized erastin and cell lysates were used in an initial attempt to identify erastin binding partners inside a cell. Initial pull-down experiments were performed with HEK293, BJEH and BJELR whole cell lysates. In those experiments, a methyl-amino derivative of erastin (ERA-A6) was immobilized to Affigel 10 and incubated with lysate under standard pull-down conditions. The beads were washed and either eluted with 100 μM erastin or 0.8% N-lauroylsarcosine (sarkosyl). The eluates were subjected to mass spectrometric analysis.
Since Prohibitin and the VDAC isoforms are all mitochondrial proteins, Applicants enriched potential erastin targets by isolating mitochondria from cell lysates. The isolated mitochondrial extracts were then used in erastin pull-down experiments. In those erastin pull-down experiments with the mitochondrial extracts, Prohibitin, VDAC and Ribophorin were also identified by Western blot. […] The pull-downs were performed with 0.25 mg total protein of the mitochondrial extract. The beads were incubated with the extracts for 1.5 h at 4° C. and then washed several times. Proteins bound to the immobilized Erastin derivatives were eluted with 50 μL of 0.8% N-lauroylsarcosine solution. […]
Ribophorin and Prohibitin are rather acidic proteins with a calculated PI of 5.57 (Prohibitin) and 5.96 (Ribophorin I). […]

[4] = test system: BJ-TERT/LT/ST/RAS^V12 cells; test: Annexin V-FITC apoptosis assay; assay type: cell-based, human; conditions: camptothecin-treated (1 μM); untreated 6%
Method: BJ-TERT/LT/ST/RAS^V12 cells were seeded at 1×10^6 cells per dish in 100 mm dishes and allowed to grow overnight. Cells were treated with erastin (5 or 10 μg/ml) for 6, 8 or 11 h. A camptothecin-treated (0.4 μg/ml) control was maintained, treated at the time of seeding for 20 hours. After the treatment, cells were harvested with trypsin/EDTA and washed once with fresh medium containing serum and then twice with phosphate buffered saline. Cells were resuspended in 1× binding buffer (BD Pharmingen) at a concentration of 1×10^6 cells/ml. 100 μl (1×10^5 cells) was incubated with 5 μl of Annexin V-FITC (BD Pharmingen) and propidium iodiode (BD Pharmingen) for 15 minutes in the dark at room temperature. Then 400 μl of the 1× binding buffer was added and the cells analyzed by flow cytometry (Becton-Dickinson). Data were acquired and analyzed using Cellquest software.

[5] = test system: cleaved, active caspase 3 in BJ-TERT/LT/ST/RAS^V12 cells; test: Western blot for active caspase-3; assay type: cell-based, human; conditions: western blot of lysates
Method: BJ-TERT/LT/ST/RAS^V12 cells were seeded prior to the experiment at 5×10^5 cells in 60 mm dishes. The cells were treated with 5 μg/ml erastin (9 μM) for 2, 4, 6, 8 or 10 hours. One dish was maintained for camptothecin treatment (0.4 μg/ml for 24 h) as a positive control. Cells were lysed after each time point in lysis buffer (50 mM HEPES KOH pH 7.4, […], 2 mM EDTA, 0.5% Triton X-100, 1.5 mM Na3VO4, 50 mM NaF, 10 mM sodium pyrophosphate, 10 mM sodium beta-glycerophosphate and protease inhibitor tablet (Roche)). Protein content was quantified using a Biorad protein assay reagent. Equal amounts of protein were resolved on 16% SDS-polyacrylamide gel. The electrophoresed proteins were transblotted onto a PVDF membrane, blocked with 5% milk and incubated with anti-active caspase-3 polyclonal antibody (BD Pharmingen) at 1:1500 dilution overnight at 4° C. The membrane was then incubated in anti-rabbit-HRP (Santa Cruz Biotechnology) at 1:3000 dilution for 1 hour and developed with an enhanced chemiluminescence mixture (NEN life science, Renaissance). To test for equivalent loading in each lane, blots were stripped, blocked, and probed with an anti-eIF-4E antibody (BD Transduction laboratories) at 1:1000 dilution.

COC(=O)CC(NC(=O)OC(C)(C)C)C(=O)CF (centres unmarked) [Boc-Asp(Ome)-fluoromethyl ketone]
block of compound-induced cell death [1]: partially blocked cell death induced by CPT, but not by erastin

CCOc1ccccc1-n1c(C(C)N2CCN(C(=O)COc3ccc(CN)cc3)CC2)nc2ccccc2c1=O (centres unmarked) [Compound 19]
lethality in BJ-TERT/LT/ST/RAS^V12 (BJELR) cells compared to BJ-TERT (BJEH) cells [2]: selective lethality
binding of cellular proteins to the immobilized compound [3]: Prohibitin and Ribophorin were identified as binding to the Erastin beads

CC[C@@]1(O)C(=O)OCc2c1cc1n(c2=O)Cc2cc3ccccc3nc2-1 [Camptothecin, reference compound]
percentage of cells in M1 region (Annexin V staining) [4]: 38%
activated caspase 3 [5]: harbor activated caspase 3
